# Results reported in ChEMBL document CHEMBL3272079, “Synthesis and preliminary pharmacological activity of aminoalkoxy isosteres of glycolate ester anticholinergics” (J Med Chem, 1977).
# Where a name gives a salt, the structure may show the parent alone. Activity calls are given as the source filed them. No cut-off for these calls is given here.
# What was measured:
# [1] = species: Rattus norvegicus; test: animal or person; type: functional; conditions: Wistar, ip, route intraperitoneal
# Description: Anticataleptic activity in albino Wistar rat assessed as inhibition of perphenazine-induced catatonia at 2 mg/kg, ip preincubated for 15 mins followed by perphenazine challenge measured at 1 hr relative to control
# [2] = species: Rattus norvegicus; test: animal or person; type: functional; conditions: Wistar, ip, route intraperitoneal; remark: listed apart in the source
# Description: Anticataleptic activity in albino Wistar rat assessed as inhibition of perphenazine-induced catatonia at 2 mg/kg, ip preincubated for 15 mins followed by perphenazine challenge measured at 3 hrs relative to control
# [3] = species: Rattus norvegicus; test: animal or person; type: functional; conditions: Wistar, ip, route intraperitoneal; remark: listed apart in the source
# Description: Anticataleptic activity in albino Wistar rat assessed as inhibition of perphenazine-induced catatonia at 2 mg/kg, ip preincubated for 15 mins followed by perphenazine challenge measured at 2 hrs relative to control
# [4] = species: Rattus norvegicus; test: animal or person; type: functional; conditions: Wistar, ip, route intraperitoneal; remark: listed apart in the source
# Description: Anticataleptic activity in albino Wistar rat assessed as inhibition of perphenazine-induced catatonia at 2 mg/kg, ip preincubated for 15 mins followed by perphenazine challenge measured at 0.5 hrs relative to control
# [5] = species: Rattus norvegicus; conditions: Wistar, Jejunum;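 for pD'2: muscarinic receptor antagonism measured as block of acetylcholine-evoked contraction in isolated jejunum, tissue exposed to test compound for 2 min before the acetylcholine challenge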
# Description: Antagonist activity at muscarinic acetylcholine receptor in Wistar rat jejunum assessed as inhibition of acetylcholine-induced contraction preincubated for 2 mins followed by acetylcholine challenge
# [6] = Octanol-phosphate buffer partition coefficient, Kp of the compound at pH 7.4; type: physicochemical
# [7] = test system: Oryctolagus cuniculus; test: Central dopaminergic activity in New Zealand rabbit assessed as change in colonic temperature at 5 mg/kg, iv measured every 15 mins for 2 hrs by thermistor probe attached telethermometric analysis; type: functional, organism-based; parameters: dose 5 mg/kg
Compound,inhibition in vivo at 2 mg/kg [1] [%],inhibition in vivo at 2 mg/kg [2] [%],inhibition in vivo at 2 mg/kg [3] [%],inhibition in vivo at 2 mg/kg [4] [%],pD'2 [5],Kp [6],Activity [7]
CN1CCC(OCC(O)(c2ccccc2)c2ccccc2)C1 (configuration not stated),21,0,8,50,5.58,–,–
C[N+]1(C)CCC(OCC(O)(c2ccccc2)c2ccccc2)CC1,–,–,–,–,7.26,–,–
CN1[C@@H]2C[C@@H](OC(=O)[C@H](CO)c3ccccc3)C[C@H]1[C@@H]1O[C@@H]12 [SCOPOLAMINE HYDROBROMIDE],96,71,83,96,5.31,–,–
C[N+](C)(C)CCOCC(O)(c1ccccc1)c1ccccc1,–,–,–,–,5.49,–,–
CCN(CC)CCOCC(O)(c1ccccc1)c1ccccc1 [listing 1 of 3 here],0,0,0,38,–,–,–
CCN1CCCC(OCC(O)(c2ccccc2)c2ccccc2)C1 (configuration not stated),0,0,0,12,4.95,–,–
CN1CCC(OCC(O)(c2ccccc2)c2ccccc2)CC1 [listing 1 of 3 here],37,0,7,80,–,–,–
C[N+]12CCC(CC1)C(OCC(O)(c1ccccc1)c1ccccc1)C2 (configuration not stated),–,–,–,–,6.18,–,–
CC[N+]1(C)CCCC(OCC(O)(c2ccccc2)c2ccccc2)C1 (configuration not stated),–,–,–,–,5,–,–
CN1CCC(OCC(O)(c2ccccc2)c2ccccc2)CC1 [listing 2 of 3 here],–,–,–,–,–,3.1,–
CN1CCC(OCC(O)(c2ccccc2)c2ccccc2)CC1 [listing 3 of 3 here],–,–,–,–,6.24,–,–
CN(C)CCCOCC(O)(c1ccccc1)c1ccccc1,71,17,54,100,5.02,–,–
CN1CCCC(OCC(O)(c2ccccc2)c2ccccc2)C1 (configuration not stated),67,17,54,92,4.9,–,–
CCN(CC)CCOCC(O)(c1ccccc1)c1ccccc1 [listing 2 of 3 here],–,–,–,–,–,5.6,–
CCN(CC)CCOCC(O)(c1ccccc1)c1ccccc1 [listing 3 of 3 here],–,–,–,–,4.92,–,inactive
CC[N+](C)(CC)CCOCC(O)(c1ccccc1)c1ccccc1,–,–,–,–,6.92,–,–
C=CCN(C)CCOCC(O)(c1ccccc1)c1ccccc1,25,0,17,79,4.09,–,–
CN1[C@@H]2CC[C@H]1C[C@H](OC(=O)C(CO)c1ccccc1)C2 (some centres not stated),56,27,30,87,7.3,–,–
CN(C)CCOCC(O)(c1ccccc1)c1ccccc1,21,8,21,75,4.68,–,–
OC(COC1CN2CCC1CC2)(c1ccccc1)c1ccccc1 (configuration not stated),85,48,56,96,6.58,–,inactive
C[N+]1(C)CCCC(OCC(O)(c2ccccc2)c2ccccc2)C1 (configuration not stated),–,–,–,–,5.68,–,–
CCN(CC)CCOC(=O)C(O)(c1ccccc1)c1ccccc1.Cl,–,–,–,–,–,0.26,inactive
C=CCN(CC)CCOCC(O)(c1ccccc1)c1ccccc1,0,0,0,8,5.13,–,–
